Experimental findings from a melting point compilation (Tetko et al.; mined from patent text by program, amines drawn as free bases though some values may be those of a salt) are described below.

A value given as a limit tells only on which side of the number the result lay.

As to `CC(C)(C)OC(=O)[C@H]1CCCN1S(=O)(=O)c1ccc2c(Cl)cnc(Cl)c2c1`, the melting point fell in the range of 80 to 82 °C.

In the case of `CN1CCN(C(=O)[C@H](CC(N)=O)Nc2ccc(OCc3ccccc3)cc2OCc2ccccc2)CC1`, the melting point lay in the range of 83 to 85 °C.

In turn, `CCOC(=O)c1cnc(C)nc1-c1ccc(OC)c(OC)c1` returned a melting point of 98 to 100 °C.

With `Cn1c(=O)ccc2cc(-c3cccnc3)ccc21`, the melting point was in the range of 116 to 118 °C.

With `COc1ccc(C2(c3ccc(OC)cc3)CC2(Br)Br)cc1`, the melting point lay in the range of 173 to 175 °C.

Turning to `Cc1nc(OCc2c(C(C)C)nnn2-c2c(Cl)cccc2Cl)ccc1N(C)S(=O)(=O)c1ccc(C(=O)O)cc1`, the melting point lay in the range of 128 to 129 °C.

On to `COC(=O)c1ccc(C(O)c2cccnc2)cc1` (stereo not given), for which the melting point stood at 151 °C.

The compound `Cc1c(Cc2cccnc2)sc2cc(C(=O)O)ccc12` came in with a melting point of 248 to 249 °C.

In the case of `CCC(C)(CC)c1nnc(N)s1`, the melting point lay in the range of 138 to 140 °C.

On to `C/C(=C\C(C)O)c1ccc(-c2ccccc2)c(Cl)c1` (stereo not given), for which the melting point was determined as 86 °C.

In turn, `CC(=O)c1ccc(-c2nn(C(C)c3oc4ccccc4c(=O)c3-c3cccc(F)c3)c3ncnc(N)c23)cc1` (stereo not given) had a melting point of 218 to 221 °C.

As for `O=C(O)COc1ccc(-c2c(Cl)c(CN3C(=O)CCC3=O)nc3sc4c(c23)CCS(=O)C4)cc1` (stereo not given), the melting point was in the range of 205 to 206 °C.

Compound `COc1nc(OC)c(C(C)C)c(C(=O)c2cc(C)cc(C(OC)OC)c2)n1` had a melting point of 86 to 88 °C.

Regarding `CCOC(=O)Cc1c(-c2ccccc2)[nH]c2ccccc12`, the melting point was in the range of 61 to 62 °C.

`Cc1ccnc2c1C(=O)CC(c1ccc(F)cc1F)C2` (stereo not given): the melting point lay in the range of 106 to 107 °C.

In turn, `O=C(c1ccccc1)c1cc2ccncc2n1S(=O)(=O)c1ccccc1` displayed a melting point of 145 to 146 °C.

`C=CCOc1ccc(C(=O)O[C@H]2CC[C@H](C(=O)CCCCCBr)CC2)cc1`: the melting point stood at 56 °C.

As for `CSCC[C@H](N)C(=O)NC(=O)N(CCCl)N=O`, the melting point was in the range of 95 to 97 °C.

Consider `CC(=O)NC1=NN(c2ccc(C(=O)C(F)(F)F)cc2)CC1`, for which the melting point was in the range of 243 to 244 °C.

For `CC(Oc1cccc(C=Cc2ccc3ccc(Cl)cc3n2)c1)C(=O)O` (single isomer, unassigned; (-)), the melting point lay in the range of 103 to 105 °C.

In turn, `COCCOc1ccc(/C=C(\C)C(=O)NS(=O)(=O)c2cccc(Cl)c2)c(Oc2ncc(C(F)(F)F)cc2Cl)c1` returned a melting point of 89 to 92 °C.

Regarding `O=C(O)c1ccccc1C(=O)c1c(-c2ccccc2)[nH]c2ccccc12`, the melting point was in the range of 106 to 107 °C.

In turn, `Cc1ccnc(-c2cccnc2)c1OC1SCC(O)C(O)C1O` (stereo not given) came in with a melting point of 98 °C.

Compound `Nc1ncc(Oc2ccc(Cl)cc2)c(N2CCN(CCO)CC2)n1` gave a melting point of 121 to 123 °C.

Consider `Nc1cc(Cl)c(I)c(Cl)c1`, for which the melting point lay within 147 to 148 °C.

Regarding `CCCN(C)S(=O)(=O)c1cccc(-c2cc(-c3nc(-c4ccc(C(F)(F)F)cc4)cc(C(F)(F)F)n3)ccn2)c1`, the melting point came out at 144 °C.

As to `O=C(O[C@H]1[C@H](OC(=O)c2ccccc2)[C@@H](CO)O[C@@H]1CO)c1ccccc1`, the melting point was in the range of 120 to 122 °C.

`O=C(O)c1cn(CCF)c2cc(F)c(F)cc2c1=O` came in with a melting point of 249 to 251 °C.

`Cn1nc(-c2cccs2)n(C)c1=O`: the melting point was in the range of 108 to 110 °C.

In turn, `O=C1OC(=O)C2CC(F)(F)CC12` (stereo not given) returned a melting point of 50 °C.

`O=C(NC1(C(=O)Nc2nncs2)CCCC1)OCc1ccccc1` registered a melting point of 229 to 233 °C.

For `O=C(O)CNC1=Nc2ccccc2C(c2ccccc2)=NC1NC(=O)Nc1ccc(Cl)cc1` (stereo not given), the melting point is 186 °C.

In turn, `CC1=C(C(=O)OC(C)C)C(c2cccc([N+](=O)[O-])c2)C(C(=O)C(C)S(=O)(=O)NC(C)C)=C(C)N1` (stereo not given) came in with a melting point of 117 to 120 °C.

Turning to `Cc1c(CC(=O)O)c2cc(OCc3csc(-c4ccccc4)n3)ccc2n1Cc1ccccc1`, the melting point fell in the range of 150 to 151 °C.

The compound `BrCc1noc2cc3c(cc12)CCC3` had a melting point of 69 to 71 °C.

`O=c1[nH]c2ccc(-c3cccc([N+](=O)[O-])c3)cc2n1Cc1ccccc1` gave a melting point of 202 to 203 °C.

The compound `NC(=O)CN1C[C@@H](c2ccccc2)CC1=O` yielded a melting point of 108 °C.

`CC(=O)OC(C)c1ccc(Cl)c2nc3n(c12)CCCN3c1ccc(Cl)cc1Cl` (stereo not given): the melting point was 204 to 206 °C.

For the compound `CN1C(=O)[C@H](NC(=O)C=Cc2ccc(Cl)cc2)N=C(c2ccccc2)c2ccccc21`, the melting point was in the range of 203 to 205 °C.

As for `C#C[C@](C)(O)CCc1c(C)c(OC(C)=O)c(C)c(C)c1OC(C)=O`, the melting point fell in the range of 96 to 102 °C.

In turn, `CCC(=O)Oc1ccc(N)cc1C(=O)O` showed a melting point of 213 to 220 °C.

As to `CCNC(=O)c1sc(I)cc1[Si](C)(C)C`, the melting point lay within 85 to 88 °C.

Turning to `CCCCCCCCCCCCCCCc1cc2c(C(=O)OCC)cccc2[nH]1`, the melting point lay in the range of 42 to 45 °C.

`Cn1cc2c(C3C(=O)Nc4ccc(Br)cc43)nc(Cl)nc2n1` (stereo not given) yielded a melting point above 300 °C.

Turning to `Cc1ncc(CN2CCc3cc(-c4ccccc4)ccc3C2)c(N)n1`, the melting point fell in the range of 186 to 188 °C.

Consider `CCCCCCCCC(C(=O)O)C(O)(CC(=O)O)C(=O)O` (stereo not given), for which the melting point fell in the range of 65.8 to 66.7 °C.

`CN(CCC(Oc1ccc(C(F)(F)F)cc1)c1ccccc1)Cc1ccccc1` (stereo not given): the melting point was 42 to 44 °C.

Compound `NC(=O)c1c(F)ccc(OCc2nc3ccc(OC(F)(F)F)cc3s2)c1F` registered a melting point of 174 to 175 °C.

Regarding `COc1c(CN2C(=O)c3ccccc3C2=O)c2c(c3c1OC(C)(C)C3)C(c1ccccc1)=NC(C)(C)C2`, the melting point lay in the range of 193 to 195 °C.

With `CC1C(=O)Oc2cc(N3CCCC3)ccc21` (stereo not given), the melting point lay in the range of 101 to 103 °C.

As to `CC(=O)Nc1nc2cc(CN3CCN(C(c4ccccc4)c4ccccc4)CC3)ccc2n1C`, the melting point worked out at 202 °C.

Consider `COc1cc2cc(C(=O)OCc3ccccc3)[nH]c2cn1`, for which the melting point came to 182 °C.

The compound `CCOC(=O)c1c(N)sc2c1CCN(CCCc1ccccc1)C2` came in with a melting point of 108 to 110 °C.

In the case of `O=C(NC1(C2CC2)CC1)c1c(NC(=O)c2cc(C(F)(F)F)nn2-c2ncccc2Cl)c(Br)cc2cn[nH]c12`, the melting point is 212 to 214 °C.

`FC(F)(F)c1ccc2onc(Nc3ccncc3)c2c1`: the melting point is above 280 °C.

The compound `CCN(CC)S(=O)(=O)c1cc(Br)c(N)c(Br)c1` returned a melting point of 186 to 187 °C.

Consider `CN(C)C(=O)c1ccc(C=O)cc1`, for which the melting point was in the range of 198 to 202 °C.

In turn, `O=c1[nH]c2ccccc2c2cc(CC(=S)N3CCOCC3)nn12` displayed a melting point of 273 to 275 °C.

`OCc1c(-c2ccc(F)cc2)nn2ccc3c(c12)CCO3` displayed a melting point of 189 to 190 °C.

For the compound `O=S(=O)(Nc1nccnc1OCc1ccc(CO)cc1)c1cccc(Cl)c1Cl`, the melting point is 160 to 161 °C.

Compound `O=C(NC(Cc1ccccc1)C(=O)O)OCc1ccc(COCc2ccccc2)cc1` (stereo not given) registered a melting point of 78.3 to 79.9 °C.

The compound `O=C(CCC(O)=NO)c1cccs1` showed a melting point of 133 to 138 °C.

The compound `C=CC[C@H]1C(=O)N(S(=O)(=O)c2cccc(S(=O)(=O)N(C)C)c2)[C@H]2CCN(C(=O)OCc3ccccc3)[C@H]12` (relative stereo) gave a melting point of 70 to 75 °C.

`CCOC(=O)C(=Cc1cc(C(C)(C)C)c(O)c(C(C)(C)C)c1)c1cccnc1` gave a melting point of 120 °C.

`COCCOCC(=O)Nc1ccnn1-c1c(Cl)cc(C(F)(F)F)cc1Cl` gave a melting point of 158 to 160 °C.

Regarding `CC(C)c1cc2c(cc1C(SCC(=O)O)c1ccccc1)OCO2` (stereo not given), the melting point came out at 114 °C.

In turn, `COc1cccc(Cc2cc3ccccc3s2)c1` came in with a melting point of 74 to 75.5 °C.

Compound `COc1cnnc(O)c1` gave a melting point of 253 to 255 °C.

For `C=CCCOC[C@H]1CC[C@H](c2ccc(C#N)cc2)CC1`, the melting point worked out at 12.7 °C.

`COc1ccc2c(c1)CCCC21NC(=O)NC1=O` (stereo not given) came in with a melting point of 218 to 220 °C.

Regarding `CNc1ccc(-c2nc3c4ccccc4ccc3n2C)cc1`, the melting point was 225 to 227 °C.

`CC(=O)OCCSc1nc(C(C)(C)C)n[nH]1` registered a melting point of 114 to 115 °C.

Consider `CCN(Cc1ccccc1)c1ccc(C2OC(=O)c3cc(N(C)C)ccc32)cc1` (stereo not given), for which the melting point lay in the range of 123 to 125 °C.

`CC(=O)N1N=C(c2ccc(N)cc2)c2cc3c(cc2C=C1C)OCO3` displayed a melting point of 175 to 180 °C.

Take `CSc1ccc(-c2ccc(C(CCC(=O)O)=NO)cc2)cc1`: the melting point lay within 162 to 164 °C.

Turning to `CN1CC(C(=O)N(C)Cc2ccc(Cl)c(Cl)c2)=C(O)C1=O`, the melting point was in the range of 148 to 150 °C.

Compound `CC(C)c1nn(-c2ccc(C(F)(F)F)cc2)cc1C=O` yielded a melting point of 81 to 82 °C.

In turn, `COC(=O)CCCCN(CCc1c[nH]c2ccccc12)CC(C)C` registered a melting point of 103 to 104 °C.

Consider `Cc1ccc(-c2c(CN3C(=O)c4ccccc4C3=O)n(CC(C)C)c(=O)c3ccc(OCc4ccccc4)cc23)cc1`, for which the melting point lay within 158 to 159 °C.

`Cc1ccccc1C(=O)c1ccc(C(=O)O)o1`: the melting point was in the range of 155 to 157 °C.

Take `COc1ccc(-c2nc3ccc(OC)cc3c(Br)c2Cl)cc1`: the melting point is 184 to 185 °C.

In the case of `COc1ccc(C=C(Br)Br)cc1O`, the melting point lay in the range of 94 to 95 °C.

The compound `COC(=O)/C=C/c1nc(C=O)ccc1OC` yielded a melting point of 132 to 134 °C.

Regarding `CC(C)=CCOc1ccc(C(=O)C=Cc2c(Cl)cccc2Cl)c(O)c1`, the melting point lay within 101 to 102 °C.

Consider `COc1ccc(-c2c(/C=C/C(=O)Oc3ccc([N+](=O)[O-])cc3)ccc3cc(OC)ccc23)cc1`, for which the melting point fell in the range of 160 to 161 °C.

The compound `CC(C)CC1(C(CCN2C(=O)c3ccccc3C2=O)C(=O)NO)CCN(Cc2ccccc2)C1=O` (stereo not given) displayed a melting point of 162 to 164 °C.

`CC1(C)Oc2ccc(CN)cc2[C@@H](N2CCCC2=O)[C@@H]1O` (relative stereo) registered a melting point of 191 to 193 °C.

Compound `CCCCC(CCC)c1ccc2[nH]c3cnc(C(=O)OCC)c(C)c3c2c1` (stereo not given) yielded a melting point of 225 to 228 °C.

`COc1c(C(=O)C=Cc2ccncc2)cc(Cl)c(N)c1OC` showed a melting point of 220 to 223 °C.

Consider `O=C(NC1=Nc2cc(O)ccc2C2=NCCN12)c1cccnc1`, for which the melting point is 289 °C.
